Experimental data taken from patent US7427616B2, “Condensed pyridines and pyrimidines with tie2 (TEK) activity” (AstraZeneca AB, priority 2002, dated 2008).

Target: T1, Tie2 receptor (Homo sapiens, UniProt Q02763)
T1 construct: one can use natural cell lines or primary cells which are known to express the receptor of choice; endogenous in cells; host or cells: EA.hy926/B3 cells (HUVEC named as alternative)
Experiment: Cellular Tie2 autophosphorylation assay (Test (b))
Type: cell-based
Settings: Ang1 ligand stimulated autophosphorylation of cellular Tie2 receptor, e.g. EA.hy926/B3 cells
Text: b. Cellular Tie2 Autophosphorylation Assay
This assay is based on measuring the ability of compounds to inhibit autophosphorylation of the Tie2 receptor which normally leads to the production of “activated” receptor that in turn initiates the particular signal transduction pathways associated with the receptor function.
Autophosphorylation can be achieved by a number of means. It is known that expression of recombinant kinase domains in baculoviral systems can lead to the production of phosphorylated and activated receptor. […] In these cases the natural, external cell surface domain of the receptor has been replaced with that of a domain which is known to be readily dimerised via the addition of the appropriate ligand (e.g. TrkA-Tie2/NGF ligand (Marron, M. B., et al., 2000 Journal of Biological Chemistry: 275:39741-39746) or C-fms-Tie-1/CSF-1 ligand (Kontos, C. D., et al., 2002 Molecular and Cellular Biology: 22, 1704-1713). Thus when the chimaeric receptor expressed in a host cell line and the respective ligand is added, this induces autophosphorylation of the chimeric receptor's kinase domain. This approach has the advantage of often allowing a known (and often easily obtained) ligand to be used instead of having to identify and isolate the natural ligand for each receptor of interest. […]

T1 sequence (Q02763 23-1124): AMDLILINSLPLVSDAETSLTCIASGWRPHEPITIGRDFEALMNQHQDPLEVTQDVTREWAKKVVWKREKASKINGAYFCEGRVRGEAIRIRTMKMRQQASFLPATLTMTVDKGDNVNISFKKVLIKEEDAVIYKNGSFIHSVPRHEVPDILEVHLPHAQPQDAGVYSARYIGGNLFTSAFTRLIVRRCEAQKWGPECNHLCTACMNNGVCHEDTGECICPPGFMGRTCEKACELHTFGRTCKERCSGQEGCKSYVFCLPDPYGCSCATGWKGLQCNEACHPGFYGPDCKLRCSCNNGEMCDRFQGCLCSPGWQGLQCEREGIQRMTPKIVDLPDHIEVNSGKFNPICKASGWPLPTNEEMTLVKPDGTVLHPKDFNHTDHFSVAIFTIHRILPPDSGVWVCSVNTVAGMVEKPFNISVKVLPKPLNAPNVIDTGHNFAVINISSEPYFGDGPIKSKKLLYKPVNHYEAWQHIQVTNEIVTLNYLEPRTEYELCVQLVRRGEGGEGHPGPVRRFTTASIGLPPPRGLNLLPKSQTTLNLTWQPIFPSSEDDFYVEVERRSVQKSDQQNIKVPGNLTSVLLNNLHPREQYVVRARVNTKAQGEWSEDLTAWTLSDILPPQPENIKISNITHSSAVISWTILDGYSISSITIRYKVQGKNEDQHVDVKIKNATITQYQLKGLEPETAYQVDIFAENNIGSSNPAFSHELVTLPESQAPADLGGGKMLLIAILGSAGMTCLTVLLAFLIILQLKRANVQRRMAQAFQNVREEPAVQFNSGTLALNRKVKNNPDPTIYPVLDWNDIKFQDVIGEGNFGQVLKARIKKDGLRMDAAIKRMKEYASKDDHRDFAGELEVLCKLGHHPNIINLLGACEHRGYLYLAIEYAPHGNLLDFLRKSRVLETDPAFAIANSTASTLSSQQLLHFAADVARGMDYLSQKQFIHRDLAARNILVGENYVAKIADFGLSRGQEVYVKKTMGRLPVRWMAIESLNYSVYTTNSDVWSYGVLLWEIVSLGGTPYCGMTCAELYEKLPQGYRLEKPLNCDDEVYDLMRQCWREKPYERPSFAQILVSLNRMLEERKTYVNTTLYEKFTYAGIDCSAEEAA

Structure (SMILES) | IC50
Cn1cnc(-c2ccccc2)c1-c1nc2c(N)ncnc2s1 [Example 2, 2-(1-Methyl-4-phenyl-1H-imidazol-5-yl)[1,3]thiazolo[5,4-d]pyrimidin-7-amine] | 2700 nM
CSc1ncnc2sc(-c3c(-c4ccccc4)ncn3C)cc12 [Example 7, 6-(1-Methyl-4-phenyl-1H-imidazol-5-yl)-4-(methylthio)thieno[2,3d]pyrimidine] | 2200 nM
